SMILES strings stand for the structures. pEC50, pKi: −log10 of the molar value.

The term pEC50 denotes the EC50 on a negative log10 scale, so that one unit is a factor of ten. A higher pEC50 goes with a small EC50. Broadly, the pKi is the Ki on a negative log10 scale, so that one unit is a factor of ten. The EC50 is the concentration needed to bring the measured effect to its halfway point. Low values mean greater potency, high ones weaker potency.

In test [1] the target is T1, EP2 (Homo sapiens, UniProt P43116). The test is described as follows: EP2 cAMP assay. It counts as cell-based. An excerpt: (§1) US 2007/0129552, incorporated by reference herein, describes the methods used to obtain the in vitro data in the table below.
T1 sequence (P43116 whole entry): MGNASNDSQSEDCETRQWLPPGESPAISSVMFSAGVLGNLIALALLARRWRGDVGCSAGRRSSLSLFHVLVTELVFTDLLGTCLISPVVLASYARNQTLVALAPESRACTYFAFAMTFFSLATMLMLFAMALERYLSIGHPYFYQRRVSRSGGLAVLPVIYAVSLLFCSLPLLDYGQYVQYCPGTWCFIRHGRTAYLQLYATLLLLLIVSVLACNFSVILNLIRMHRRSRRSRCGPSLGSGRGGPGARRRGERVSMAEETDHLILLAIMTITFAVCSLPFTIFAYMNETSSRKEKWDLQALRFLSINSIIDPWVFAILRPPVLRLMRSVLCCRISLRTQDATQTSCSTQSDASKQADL
Test [2] addresses T1, EP2. The test is described as follows: EP2 binding (Ki).
Text: as §1

For another test, the target named is EP4 (Homo sapiens, UniProt P35408). Briefly: EP4 binding (Ki).
Chain of EP4 (P35408 whole entry): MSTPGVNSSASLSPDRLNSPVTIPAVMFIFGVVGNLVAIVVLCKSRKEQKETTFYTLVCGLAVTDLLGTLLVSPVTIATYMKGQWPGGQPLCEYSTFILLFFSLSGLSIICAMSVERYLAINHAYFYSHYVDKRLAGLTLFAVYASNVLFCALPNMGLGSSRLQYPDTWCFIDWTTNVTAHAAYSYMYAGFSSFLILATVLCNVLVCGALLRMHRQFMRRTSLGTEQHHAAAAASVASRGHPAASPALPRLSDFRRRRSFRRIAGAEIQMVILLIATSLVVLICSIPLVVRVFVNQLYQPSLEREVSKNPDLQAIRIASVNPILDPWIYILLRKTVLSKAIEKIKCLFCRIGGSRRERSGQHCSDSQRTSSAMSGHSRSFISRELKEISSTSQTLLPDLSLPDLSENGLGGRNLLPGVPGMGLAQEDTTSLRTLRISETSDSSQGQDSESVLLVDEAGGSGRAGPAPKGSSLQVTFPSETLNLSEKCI
Text: as §1

Test [3] concerns the target T1, EP2. Briefly: EP2 flipr functional assay. The format is cell-based.
Text: as §1

Another test has as its target T2, hDP (Homo sapiens, UniProt Q13258).
T2 sequence (Q13258 1-359): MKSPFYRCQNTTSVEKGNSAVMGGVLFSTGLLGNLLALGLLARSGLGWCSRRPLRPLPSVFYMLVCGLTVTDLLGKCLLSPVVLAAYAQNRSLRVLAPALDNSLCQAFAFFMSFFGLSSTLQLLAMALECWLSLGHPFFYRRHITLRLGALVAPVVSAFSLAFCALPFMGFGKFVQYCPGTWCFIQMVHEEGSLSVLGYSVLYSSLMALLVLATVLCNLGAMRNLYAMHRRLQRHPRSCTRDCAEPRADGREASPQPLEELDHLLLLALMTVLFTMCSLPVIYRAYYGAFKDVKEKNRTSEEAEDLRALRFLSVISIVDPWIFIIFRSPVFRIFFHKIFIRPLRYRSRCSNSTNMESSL
The test is described as follows: Other receptors functional assay, hDP. It counts as cell-based.
Text: as §1

With `CCCCCCc1ccc(-n2cccc2CCCc2ccc(C(=O)O)s2)cc1` [Example 1, 5-(3-(1-(4-hexylphenyl)-1H-pyrrol-2-yl)propyl)thiophene-2-carboxylic acid], the values for the pEC50 at EP2 [1] and at EP2 [3] were 9.15 and 5.55, respectively. For the same molecule, the pKi is 7.34 on EP2 [2] and 5.40 on EP4. The molecule further gave an EC50 on hDP of 2190 nM.

The record behind these values is patent US7985765B2, “Therapeutic substituted pyrroles” (Allergan, Inc., priority 2008, dated 2011).
